Values of other authors as cited in patent US20190105332A1, “METHODS OF TREATING PROSTATE CANCER” (Janssen Oncology, Inc., priority 2017, published 2019).
Like-named read-outs stand apart in the source and are kept apart here.

Tests used:
[1] = for activity of metabolite / share of exposure as circulating metabolite in human plasma: in vivo
OATP1B1 = biological target: T1, OATP1B1 (Homo sapiens, UniProt Q9Y6L6); conditions: in vitro
T1 sequence (Q9Y6L6 1-691): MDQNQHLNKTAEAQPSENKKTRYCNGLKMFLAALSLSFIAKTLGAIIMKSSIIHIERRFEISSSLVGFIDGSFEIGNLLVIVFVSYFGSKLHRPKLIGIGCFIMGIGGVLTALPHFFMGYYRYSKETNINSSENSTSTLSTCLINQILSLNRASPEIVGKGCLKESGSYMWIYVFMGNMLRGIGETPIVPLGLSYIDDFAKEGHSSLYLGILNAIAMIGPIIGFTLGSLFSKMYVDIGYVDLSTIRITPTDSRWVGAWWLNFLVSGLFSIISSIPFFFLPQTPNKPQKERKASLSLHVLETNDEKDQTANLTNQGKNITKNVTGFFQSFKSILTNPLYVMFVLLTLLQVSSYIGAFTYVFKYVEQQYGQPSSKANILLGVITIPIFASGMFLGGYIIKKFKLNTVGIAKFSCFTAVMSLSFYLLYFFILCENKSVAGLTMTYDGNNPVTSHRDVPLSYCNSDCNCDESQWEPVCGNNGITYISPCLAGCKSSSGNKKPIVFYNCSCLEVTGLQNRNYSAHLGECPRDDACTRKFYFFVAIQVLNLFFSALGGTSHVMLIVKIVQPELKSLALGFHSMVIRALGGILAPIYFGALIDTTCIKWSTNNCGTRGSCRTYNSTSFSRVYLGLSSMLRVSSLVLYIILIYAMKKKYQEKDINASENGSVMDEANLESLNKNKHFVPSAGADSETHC

CYP2C9 = biological target: T2, CYP2C9 (Homo sapiens, UniProt P11712); conditions: human hepatic microsomes
T2 construct: In vitro studies with human hepatic microsomes; from tissue; host or cells: human hepatic microsomes

CYP3A4 [2] = biological target: T3, CYP3A4 (Homo sapiens, UniProt P08684); set-up: from tissue; host or cells: in vivo, healthy human subjects (endogenous enzyme); conditions: healthy subjects
[3] = tested on: primary human lymphocytes
CYP2D6 = biological target: T4, CYP2D6 (Homo sapiens, UniProt P10635); conditions: human hepatic microsomes
T4 construct: from tissue; host or cells: in vivo, trial participants (endogenous hepatic enzyme)

[4] = not given; remark: listed apart in the source
P-glycoprotein (P-gp) = P-glycoprotein (P-gp) (Homo sapiens, UniProt P08183); conditions: in vitro, clinically relevant concentrations
[5] = not given; remark: listed apart in the source
CYP1A2 = biological target: T5, CYP1A2 (Homo sapiens, UniProt P05177); set-up: In vitro studies with human hepatic microsomes; from tissue; host or cells: human hepatic microsomes; conditions: human hepatic microsomes
T5 sequence (P05177 1-516): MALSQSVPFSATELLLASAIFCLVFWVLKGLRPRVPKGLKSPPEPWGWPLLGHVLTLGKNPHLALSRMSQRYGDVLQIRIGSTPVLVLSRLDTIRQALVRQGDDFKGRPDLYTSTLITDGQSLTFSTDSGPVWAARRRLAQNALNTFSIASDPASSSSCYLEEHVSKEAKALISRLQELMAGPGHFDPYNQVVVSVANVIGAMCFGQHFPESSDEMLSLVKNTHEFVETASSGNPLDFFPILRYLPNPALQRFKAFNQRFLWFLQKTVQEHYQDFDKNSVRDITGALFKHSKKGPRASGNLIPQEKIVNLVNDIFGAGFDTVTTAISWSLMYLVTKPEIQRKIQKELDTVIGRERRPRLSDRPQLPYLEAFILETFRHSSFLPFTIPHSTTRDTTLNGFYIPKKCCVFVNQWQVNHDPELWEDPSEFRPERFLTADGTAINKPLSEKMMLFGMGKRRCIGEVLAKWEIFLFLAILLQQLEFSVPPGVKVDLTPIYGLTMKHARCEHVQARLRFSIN

[6] = rat micronucleus assay
[7] = end-stage renal disease on dialysis; single oral 1,000 mg dose
CYP3A4 [8] = biological target: T3, CYP3A4; conditions: in vitro
[9] = tested on: human plasma proteins, albumin and alpha-1 acid glycoprotein
[10] = healthy subjects, single dose with high-fat (57% fat, 825 calories) meal
[11] = healthy subjects, single dose with low-fat meal (7% fat, 300 calories)

T3 sequence (P08684 whole entry): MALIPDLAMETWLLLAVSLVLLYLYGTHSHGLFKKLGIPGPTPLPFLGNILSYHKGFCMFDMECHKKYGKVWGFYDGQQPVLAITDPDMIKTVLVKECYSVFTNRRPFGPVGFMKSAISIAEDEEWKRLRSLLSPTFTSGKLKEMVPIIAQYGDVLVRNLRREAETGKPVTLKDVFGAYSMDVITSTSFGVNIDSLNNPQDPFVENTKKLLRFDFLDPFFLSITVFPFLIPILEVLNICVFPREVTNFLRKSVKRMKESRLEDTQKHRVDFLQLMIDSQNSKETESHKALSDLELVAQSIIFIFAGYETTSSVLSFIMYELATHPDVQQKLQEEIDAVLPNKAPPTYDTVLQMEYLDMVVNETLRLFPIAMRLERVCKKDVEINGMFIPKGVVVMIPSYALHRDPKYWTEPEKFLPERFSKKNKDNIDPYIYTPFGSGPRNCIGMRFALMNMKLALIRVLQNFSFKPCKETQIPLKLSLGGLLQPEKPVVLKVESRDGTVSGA
T2 sequence (P11712 whole entry): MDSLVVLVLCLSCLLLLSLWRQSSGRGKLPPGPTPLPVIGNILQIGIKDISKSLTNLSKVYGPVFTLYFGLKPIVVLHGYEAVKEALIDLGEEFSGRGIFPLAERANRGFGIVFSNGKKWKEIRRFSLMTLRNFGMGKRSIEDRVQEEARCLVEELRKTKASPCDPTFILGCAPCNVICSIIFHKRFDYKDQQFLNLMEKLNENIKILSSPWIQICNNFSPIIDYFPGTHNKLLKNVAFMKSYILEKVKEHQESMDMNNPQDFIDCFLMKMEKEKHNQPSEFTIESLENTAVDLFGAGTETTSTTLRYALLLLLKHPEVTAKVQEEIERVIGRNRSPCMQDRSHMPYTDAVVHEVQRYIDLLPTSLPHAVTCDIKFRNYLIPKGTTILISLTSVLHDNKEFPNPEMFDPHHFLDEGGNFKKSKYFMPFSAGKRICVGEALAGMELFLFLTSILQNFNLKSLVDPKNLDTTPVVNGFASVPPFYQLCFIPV
P-glycoprotein (P-gp), sequence (P08183 whole entry): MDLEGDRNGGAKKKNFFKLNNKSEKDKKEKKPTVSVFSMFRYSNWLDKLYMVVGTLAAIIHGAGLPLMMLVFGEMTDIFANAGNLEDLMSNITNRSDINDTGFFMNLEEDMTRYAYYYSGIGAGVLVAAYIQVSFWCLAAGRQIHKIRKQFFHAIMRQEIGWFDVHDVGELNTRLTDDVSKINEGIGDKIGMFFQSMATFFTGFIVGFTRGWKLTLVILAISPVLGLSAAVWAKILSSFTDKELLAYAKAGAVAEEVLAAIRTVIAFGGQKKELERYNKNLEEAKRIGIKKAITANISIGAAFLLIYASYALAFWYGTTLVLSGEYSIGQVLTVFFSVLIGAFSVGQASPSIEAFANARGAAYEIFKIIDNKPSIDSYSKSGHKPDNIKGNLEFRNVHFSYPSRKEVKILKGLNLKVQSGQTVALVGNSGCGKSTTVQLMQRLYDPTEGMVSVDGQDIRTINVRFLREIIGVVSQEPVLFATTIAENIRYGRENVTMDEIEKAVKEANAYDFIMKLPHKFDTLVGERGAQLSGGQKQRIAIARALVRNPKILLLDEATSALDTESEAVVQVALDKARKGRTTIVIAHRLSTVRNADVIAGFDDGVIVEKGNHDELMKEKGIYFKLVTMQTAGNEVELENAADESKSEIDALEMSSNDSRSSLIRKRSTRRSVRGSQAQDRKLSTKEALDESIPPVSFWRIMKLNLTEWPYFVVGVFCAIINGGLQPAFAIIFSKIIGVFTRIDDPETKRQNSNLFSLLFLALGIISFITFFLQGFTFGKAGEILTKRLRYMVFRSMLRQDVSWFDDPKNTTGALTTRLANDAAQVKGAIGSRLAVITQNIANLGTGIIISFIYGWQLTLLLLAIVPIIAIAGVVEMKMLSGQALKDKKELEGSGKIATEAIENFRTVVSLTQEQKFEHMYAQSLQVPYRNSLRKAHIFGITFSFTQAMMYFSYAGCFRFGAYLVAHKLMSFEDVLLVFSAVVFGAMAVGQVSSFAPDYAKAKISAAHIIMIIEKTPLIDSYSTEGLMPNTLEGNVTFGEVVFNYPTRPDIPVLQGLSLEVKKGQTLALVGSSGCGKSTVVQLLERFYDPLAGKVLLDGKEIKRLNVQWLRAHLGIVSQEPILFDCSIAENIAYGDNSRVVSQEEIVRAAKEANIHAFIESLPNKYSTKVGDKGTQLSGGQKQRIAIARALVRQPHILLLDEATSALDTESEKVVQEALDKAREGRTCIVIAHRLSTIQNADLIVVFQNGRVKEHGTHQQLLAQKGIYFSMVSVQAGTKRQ
T4 sequence (P10635 whole entry): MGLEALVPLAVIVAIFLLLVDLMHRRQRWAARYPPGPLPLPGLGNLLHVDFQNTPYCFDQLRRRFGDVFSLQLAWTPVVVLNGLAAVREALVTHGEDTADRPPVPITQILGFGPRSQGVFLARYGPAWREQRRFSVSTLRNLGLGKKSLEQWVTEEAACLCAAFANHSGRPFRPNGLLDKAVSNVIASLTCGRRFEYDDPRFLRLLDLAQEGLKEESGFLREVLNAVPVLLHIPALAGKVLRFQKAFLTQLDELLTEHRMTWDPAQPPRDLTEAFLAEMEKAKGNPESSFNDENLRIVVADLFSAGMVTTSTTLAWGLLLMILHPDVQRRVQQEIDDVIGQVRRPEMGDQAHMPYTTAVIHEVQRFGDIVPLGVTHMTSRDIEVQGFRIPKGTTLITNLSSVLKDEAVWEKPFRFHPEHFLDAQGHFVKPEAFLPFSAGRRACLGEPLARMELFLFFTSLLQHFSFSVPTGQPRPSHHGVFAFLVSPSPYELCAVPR

C[C@]12CC[C@H](OS(=O)(=O)O)CC1=CC[C@@H]1[C@@H]2CC[C@]2(C)C(c3ccc[n+]([O-])c3)=CC[C@@H]12 [N-oxide abiraterone sulphate]
activity of metabolite [1]: inactive
share of exposure as circulating metabolite in human plasma [1]: about 43%

C[C@]12CC[C@H](O)CC1=CC[C@@H]1[C@@H]2CC[C@]2(C)C(c3cccnc3)=CC[C@@H]12 [abiraterone]
inhibition of hepatic uptake transporter OATP1B1 (OATP1B1): inhibit
inhibition of CYP2C9 (CYP2C9): to a lesser extent
effect of ketoconazole co-administration on pharmacokinetics (CYP3A4 [2]): no clinically meaningful effect
decrease of exposure (mean plasma AUC∞) with rifampin (CYP3A4 [2]; rifampin 600 mg daily for 6 days, then single 1,000 mg abiraterone acetate): 55%
AUC0-∞, fold higher vs overnight fasting [10]: ~10 fold
Cmax, fold higher vs overnight fasting [10]: approximately 17 fold
AUC0-∞, fold higher vs overnight fasting [11]: ~5 fold
Cmax, fold higher vs overnight fasting [11]: approximately 7 fold
systemic exposure increase vs dosing away from meals (patients with metastatic CRPC, repeated dosing with high-fat meals for 7 days): approximately 2 fold
systemic exposure vs dosing away from meals (patients with metastatic CRPC, repeated dosing with low-fat meals for 7 days): similar
AUC0-∞, fold higher vs overnight fasting (single dose 1 hour before a medium fat meal (25% fat, 491 calories)): ~1.6 fold
AUC0-∞, fold higher vs overnight fasting (single dose 2 hours after a medium fat meal (25% fat, 491 calories)): approximately 7 fold
clastogenicity in vitro [3]: not mutagenic in an in vitro microbial mutagenesis (Ames) assay or clastogenic
inhibition of CYP2D6 (CYP2D6): potential to inhibit
mean half-life ([4]; mild hepatic impairment): approximately 18 hours
mean half-life ([4]; moderate hepatic impairment): approximately 19 hours
systemic exposure (AUC) increase vs normal hepatic function ([4]; moderate hepatic impairment (Child-Pugh Class B), single oral 1,000 mg dose): ~3.6 fold
systemic exposure (AUC) increase vs normal hepatic function ([4]; severe hepatic impairment (Child-Pugh Class C)): approximately 7 fold
substrate of P-glycoprotein (P-gp) (P-glycoprotein (P-gp)): not substrates
compound present in feces, share of the administered dose ([1]; oral 14C-abiraterone acetate): ~22%
steady-state Cmax (mean±SD) ([5]; 1,000 mg daily, patients with metastatic CRPC): 226 ± 178 ng/mL
dose proportionality ([5]; dose range of 250 mg to 1,000 mg): No major deviation from dose proportionality
increase in the mean AUC when dose doubled ([5]; from 1,000 to 2,000 mg): 8%
accumulation: steady-state AUC compared to a single 1,000 mg dose ([5]; human, in vivo): 2 fold
median time to reach maximum plasma abiraterone concentrations ([5]; oral abiraterone acetate, patients with metastatic CRPC): 2 h
inhibition of CYP1A2 (CYP1A2): potential to inhibit
clastogenicity in vivo [6]: not mutagenic in an in vitro microbial mutagenesis (Ames) assay or clastogenic
systemic exposure vs normal renal function [7]: did not increase
substrate of CYP3A4 (CYP3A4 [8]): substrate
bound to human plasma proteins [9]: > 99%

abiraterone sulphate
activity of metabolite [1]: inactive
share of exposure as circulating metabolite in human plasma [1]: about 43%
